Measured values reported in patent publication EP0156772A2, “Novel pharmaceutical use for CGRPs” (SANDOZ AG, priority 1984, dated 1985).

What was measured:
[1] = Clinical trial A: human CGRP in active Paget's disease, serum parameters prior and post administration; type: in vivo, volunteer subjects (male and female)
Method: Human CGRP is employed as trial substance and is tested by administration in accordance with the following regimens.
The following parameters are measured prior and post-administration: circulating calcium serum levels: alkaline phosphatase: hydroxyproline: bone specific protein levels.

[2] = Continuous on-line measurement of free calcium concentrations in the extra-corporeal blood circulation; type: in vivo, young rabbits; conditions: for calcaemic response: rat CGRP i.v.
Method: • The general scheme for this test is represented in figure 1 attached: • A flow-through electrode system with two Ca2+^-selective liquid membrane electrodes is inserted in the arterio-venous extracor- poreal blood circulatory system of the test animal this being established by means of indwelling catheters connecting the femoral artery with femoral vein.
The blood is pumped from the artery to the vein at a flow rate of 18 ml/h through the system containing Ca2+^-selective electrodes. A second peristaltic pump aspirates the reference solution of electrolytes, which is transported at a flow rate of 0.9 ml/h, passing the compartment of the reference electrode and mixed with the circulating blood at the site of the common electrode. The mixed fluids are then returned into the ciculatory system of the animal.
The Ca2+^-selective electrode allows the potentiometric measurement of the ionized calcium quantitatively. The potential difference between the reference electrode and the Ca2+^-selective electrode is measured differentially relative to the common electrode. The analogue signal of the difference amplifier is processed by a digital voltmeter. Results are obtained in mV and are continously recorded as a function of time. The voltage difference is […].
Following administration of CGRPs i.v. to the test animal, a potent influence on Ca2+ concentration over extended periods of time and up to at least 5 hours is observed at dosages of from about 0.1 to about 25 µg/kg. More importantly results observed indicate that CGRPs exert both a hypo- and hyper-calcaemic effect which is both dose- and time-dependent. […] Specific results obtained following Ix administration of rat CGRP at varying dosages and illustrating activity profile are shown in the accompanying Figs. 2 through 5. • In all cases administration of test substance occurs at time • Fig.2 .: This is a plot for observed change in calcium level [Δ% calcaemia] with time, following i.v. administration of rat CGRP at dosages of from 0.156 µg/kg to 5.0 µg/kg.

[3] = Clinical trial B: human CGRP s.c. accompanied by salmon or human calcitonin; type: in vivo, volunteer subjects (male and female); conditions: human CGRP s.c. 10 to 200 µg accompanied by salmon or human calcitonin 5 to 100 I.U. (or M.R.C) s.c. or i.m.
Source text: The methodology of clinical trial A is repeated, with administration of human CGRP in accordance with regimen 1.3. In this trial however administration is accompanied by administration of salmon or human calcitonin at dosages of from 5 to 100 I.U. (or M.R.C), [e.g. at dosages of 5, 10, 25, 50 or 100 I.U. (or M.R.C.)] administered by injection either s.c. or i.m.

Structure (SMILES)	circulating serum calcium levels ([1]; i.v. 0.1 to 20 µg, i.v. infusion 10 to 100 µg, s.c. 10 to 200 µg, intranasal 10 to 500 µg, or s.c. daily for 5 to 7 days)	alkaline phosphatase levels ([1]; same regimens)	hydroxyproline levels ([1]; same regimens)	bone specific proteins ([1]; same regimens, in particular proteins reflecting bone metabolic turn over)	observed change in calcium level, course of response ([2]; Fig. 6, i.v., 2.5 µg/kg, groups of 6 animals)	influence on measured serum parameters [3]	reduction of circulating serum calcium levels ([3]; compared with salmon calcitonin alone)	AUCS (areas under curve) ([2]; Fig. 2, i.v., 0.156 µg/kg to 5.0 µg/kg, calcium level versus time)	observed change in calcium level [Δ% calcaemia] ([2]; Fig. 2, i.v., dosages of from 0.156 µg/kg to 5.0 µg/kg)	observed change in calcium level after the initial hypocalcaemic response ([2]; Fig. 5, 10 pg/kg i.v.)	hypocalcaemic response ([2]; Fig. 5, 10 pg/kg i.v., compared with untreated control)	duration of hypercalcaemic response following initial administration ([2]; Fig. 5, 10 pg/kg i.v., printed 'up to at least 5 hours')	observed change in calcium level ([2]; Figs 3 to 4, i.v., 2.5 and 5.0 µg/kg, groups of four test animals, compared with untreated controls)	calcaemic response [2]	calcaemic response ([2]; dosages in excess of 5 µg/kg)
CC(C)C[C@H](NC(=O)CNC(=O)[C@H](C)NC(=O)[C@H](CC(C)C)NC(=O)[C@H](CCCNC(=N)N)NC(=O)[C@H](Cc1c[nH]cn1)NC(=O)[C@@H](NC(=O)[C@@H](NC(=O)[C@@H]1CSSC[C@H](NC(=O)[C@H](C)N)C(=O)N[C@@H](CC(=O)O)C(=O)N[C@@H]([C@@H](C)O)C(=O)N[C@@H](C)C(=O)N[C@@H]([C@@H](C)O)C(=O)N1)C(C)C)[C@@H](C)O)C(=O)N[C@@H](CC(C)C)C(=O)N[C@@H](CO)C(=O)N[C@@H](CCCNC(=N)N)C(=O)N[C@@H](CO)C(=O)NCC(=O)NCC(=O)N[C@H](C(=O)N[C@H](C(=O)N[C@@H](CCCCN)C(=O)N[C@@H](CC(N)=O)C(=O)N[C@@H](CC(N)=O)C(=O)N[C@@H](Cc1ccccc1)C(=O)N[C@H](C(=O)N1CCC[C@H]1C(=O)N[C@H](C(=O)N[C@@H](CC(N)=O)C(=O)N[C@H](C(=O)NCC(=O)N[C@@H](CO)C(=O)N[C@@H](CCCCN)C(=O)N[C@@H](C)C(=O)N[C@@H](Cc1ccccc1)C(N)=O)C(C)C)[C@@H](C)O)C(C)C)C(C)C)C(C)C [human CGRP]	significant reduction	concomitant reduction	concomitant reduction	marked reduction	parallels that recorded for rat CGRP in Fig. 5	observed in this trial as in trial A	superior to that observed on administration of salmon calcitonin alone	–	–	–	–	–	–	–	–
CC(C)C[C@H](NC(=O)CNC(=O)[C@H](C)NC(=O)[C@H](CC(C)C)NC(=O)[C@H](CCCNC(=N)N)NC(=O)[C@H](Cc1c[nH]cn1)NC(=O)[C@@H](NC(=O)[C@@H](NC(=O)[C@@H]1CSSC[C@H](NC(=O)[C@@H](N)CO)C(=O)N[C@@H](CC(N)=O)C(=O)N[C@@H]([C@@H](C)O)C(=O)N[C@@H](C)C(=O)N[C@@H]([C@@H](C)O)C(=O)N1)C(C)C)[C@@H](C)O)C(=O)N[C@@H](CC(C)C)C(=O)N[C@@H](CO)C(=O)N[C@@H](CCCNC(=N)N)C(=O)N[C@@H](CO)C(=O)NCC(=O)NCC(=O)N[C@H](C(=O)N[C@H](C(=O)N[C@@H](CCCCN)C(=O)N[C@@H](CC(=O)O)C(=O)N[C@@H](CC(N)=O)C(=O)N[C@@H](Cc1ccccc1)C(=O)N[C@H](C(=O)N1CCC[C@H]1C(=O)N[C@H](C(=O)N[C@@H](CC(N)=O)C(=O)N[C@H](C(=O)NCC(=O)N[C@@H](CO)C(=O)N[C@@H](CCC(=O)O)C(=O)N[C@@H](C)C(=O)N[C@@H](Cc1ccccc1)C(N)=O)C(C)C)[C@@H](C)O)C(C)C)C(C)C)C(C)C [rat CGRP]	–	–	–	–	–	–	–	statistically linear	decrease (hypocalcaemia)	reverse hypercalcaemic response which continues very strongly	though strongly marked, is transitory only	at least 5 hours	hypocalcaemia is again observed	primarily hypo- calcaemic response	primarily hyper-calcaemic response preceeded by a transient hypo-calcaemic response at the lower end of the dosage range
